According to patent US11371055B2, “Herbicide resistance genes” (CORTEVA AGRISCIENCE LLC, priority 2005, dated 2022):

What was measured:
[1] = tested on: Segregating T2 AAD-12 (v1) plants (pDAB724.01.1.20); assay: Foliar-applied auxinic herbicides on T2 Arabidopsis; type: in vivo, Arabidopsis thaliana; settings: Inactive DCP metabolite
Procedure: (§1) The ability of AAD-12 (v1) to provide resistance to other aryloxyalkanoate auxin herbicides in transgenic Arabidopsis was determined by foliar application of various substrates. T2 generation Arabidopsis seed was stratified, and sown into selection trays much like that of Arabidopsis (Example 6.4). A transformed-control line containing PAT and the insect resistance gene Cry1F was planted in a similar manner. Seedlings were transferred to individual 3-inch pots in the greenhouse. All plants were sprayed with the use of a track sprayer set at 187 L/ha. The plants were sprayed with a range of pyridyloxyacetate herbicides: 280-2240 g ae/ha triclopyr (Garlon 3A, Dow AgroSciences) and 280-2240 g ae/ha fluroxypyr (Starane, Dow AgroSciences); and the 2,4-D metabolite resulting from AAD-12 activity, 2,4-dichlorophenol (DCP, Sigma) (at a molar equivalent to 280-2240 g ac/ha of 2,4-D, technical grade DCP was used). All applications were formulated in water. Each treatment was replicated 3-4 times. Plants were evaluated at 3 and 14 days after treatment.

[2] = tested on: Pat/Cry1f-Control Arabidopsis; assay: Foliar-applied auxinic herbicides on transformed control Arabidopsis; type: in vivo, Arabidopsis thaliana; settings: for Ave % Injury 14DAT: Inactive DCP metabolite
Procedure: as §1

AAD-12 (v2) [3] = biological target: T1, AAD-12 (v2) (Delftia acidovorans, UniProt P83309); assay: Chloropyridinol detection assay (absorbance at 325 nm); type: biochemical; settings: 6.8 μg AAD-12 (v2), 1 mM substrate; for Rate (mAU/min): 325 nm, background rate 1.4 mAU/min subtracted
T1 construct: made in house; host or cells: Pseudomonas fluorescens strain MB324 (construct pDAB739)
Excerpt: AAD-12 action on potential substrates such as the herbicide triclopyr containing a substituted pyridine (rather than benzene rings) will release a pyridinol on cleavage of the aryloxyalkanoate bond. Pyridinols were not detected using the aminoantipyrine/ferricyanide phenol detection described in the preceding section. […] This was used to create a continuous microplate-based spectrophotometric assay.
All five pyridyloxyalkanoates were cleaved to release pyridinols by AAD-12 (v2). The rates for the oxypropionate substrates 116844 and 91767 were somewhat faster than those for the corresponding acetates (triclopyr and 93833 respectively) indicating a preference of AAD-12 (v2) for oxypropionate over oxyacetate side chains.

AAD-12 (v2) [4] = biological target: T1, AAD-12 (v2); assay: Colorimetric phenol detection assay of AAD-12 activity; type: biochemical; settings: 4.4 μg AAD-12 (v2), 0.5 mM substrate, 5 minutes
Procedure: Enzyme activity was measured by colorimetric detection of the product phenol using a protocol modified from that of Fukumori and Hausinger (1993) (J. Biol. Chem. 268: 24311-24317) to enable deployment in a 96-well microplate format. The colorimetric assay has been described for use in measuring the activity of dioxygenases cleaving 2,4-D and dichlorprop to release the product 2,4-dichlorophenol. The color yield from several phenols was compared to that of 2,4-dichlorophenol using the detection method previously described to ascertain which phenol products could be readily detected. […] Pyridinols derived from fluroxypyr and triclopyr produced no significant color. The color yield of 2,4-dichlorophenol was linear and proportional to the concentration of phenol in the assay up to ˜500 μM.
Assays were initiated by addition of the aryloxyalkanoate substrate, enzyme or α-ketoglutarate at time zero. After 5 minutes of incubation at 25° C., the reaction was terminated by addition of 30 μl of a 1:1:1 mix of 50 mM Na EDTA; pH 10 buffer (3.09 g boric acid+3.73 g KCl+44 ml 1 N KOH) and 0.2% 4-aminoantipyrine. Then 10 μl 0.8% potassium ferricyanide was added and after 5 or 10 min, the absorbance at 510 nm was recorded in a spectrophotometric microplate reader. Blanks contained all reagents except for enzyme to account for the occasional slight contamination of some of the substrates by small amounts of phenols.
The results are shown in FIG. 3, which illustrates activity of AAD-12 (v2) on 2,4-D and enantiomers of dichlorprop. 4.4 μg AAD-12 (v2) was incubated with 0.5 mM substrate (1 mM for (R,S)-dichlorprop) and the reaction initiated by addition of α-ketoglutarate. After 5 minutes, the reaction was quenched, and the absorbance at 510 nm determined after addition of colorimetric detection reagents. The background value without enzyme was subtracted.

[5] = tested on: AAD-12 (v1) (pDAS1580) T2 tobacco plants; assay: Auxinic herbicide cross tolerance of stacked tobacco, AAD-12 T2; type: in vivo, Nicotiana tabacum; settings: 280 g ae/ha
Procedure: (§2) Homozygous AAD-12 (v1) (pDAS1580) and AAD-1 (v3) (pDAB721) plants (see PCT/US2005/014737 for the latter) were both reciprocally crossed and F1 seed was collected. The F1 seed from two reciprocal crosses of each gene were stratified and treated 4 reps of each cross were treated under the same spray regimen as used for the other testing with one of the following treatments: 70, 140, 280 g ac/ha fluroxypyr (selective for the AAD-12 (v1) gene); 280, 560, 1120 g ae/ha R-dichloroprop (selective for the AAD-1 (v3) gene); or 560, 1120, 2240 g ae/ha 2,4-D DMA (to confirm 2,4-D tolerance). Homozygous T2 plants of each gene were also planted for use as controls. Plants were graded at 3 and 14 DAT.

[6] = tested on: AAD-1 (v3) (pDAB721) T2 tobacco plants; assay: Auxinic herbicide cross tolerance of stacked tobacco, AAD-1 T2; type: in vivo, Nicotiana tabacum; settings: 280 g ae/ha
Procedure: as §2

[7] = tested on: AAD-12 x AAD-1 F1 cross tobacco; assay: Auxinic herbicide cross tolerance of stacked tobacco, F1 cross; type: in vivo, Nicotiana tabacum; settings: AAD-12 (v1) x AAD (v3) F1; 280 g ae/ha
Procedure: as §2

wildtype tobacco = assay: Auxinic herbicide cross tolerance of stacked tobacco, wildtype; type: in vivo, Nicotiana tabacum; settings: KY160 wildtype control; 280 g ae/ha
Procedure: as §2

[8] = tested on: AAD-12 v1 gene + EPSPS + HptII (pDAB3759) T1 Arabidopsis; assay: Glyphosate postemergence dose response, AAD-12 + EPSPS stack; type: in vivo, Arabidopsis thaliana; settings: 14 DAT
Procedure: (§3) T1 Arabidopsis seed was produced, as previously described, containing the pDAB3759 plasmid (AAD-12 (v1)+EPSPS) which encodes a putative glyphosate resistance trait. T1 transformants were selected using AAD-12 (v1) as the selectable marker as described in example 7.6. T1 plants (individually transformed events) were recovered from the first selection attempt and transferred to three-inch pots in the greenhouse as previously described. Three different control Arabidopsis lines were also tested: wildtype Columbia-0, AAD-12 (v1)+PAT T4 homozygous lines (pDAB724-transformed), and PAT+Cry1F homozygous line (transformed control). The pDAB3759 and pDAB724 transformed plants were pre-selected at the seedling stage for 2,4-D tolerance. Four days after transplanting, plants were evenly divided for foliar treatment by track sprayer as previously described with 0, 26.25, 105, 420, or 1680 g ae/ha glyphosate (Glyphomax Plus, Dow AgroSciences) in water. All treatments were replicated 5 to 20 times. Plants were evaluated 7 and 14 days after treatment.

PAT/Cry1F Arabidopsis = assay: Glyphosate postemergence dose response, PAT/Cry1F control; type: in vivo, Arabidopsis thaliana; settings: 14 DAT
Procedure: as §3

[9] = tested on: Wildtype (Col-0) Arabidopsis; assay: Glyphosate postemergence dose response, wildtype; type: in vivo, Arabidopsis thaliana; settings: 14 DAT
Procedure: as §3

[10] = tested on: pDAB724 T4 (PAT + AAD-12) Arabidopsis; assay: Glyphosate postemergence dose response, pDAB724 T4; type: in vivo, Arabidopsis thaliana; settings: 14 DAT
Procedure: as §3

[11] = 280 g ae/ha (molar equivalent of 2,4-D) foliar
[12] = 560 g ae/ha (molar equivalent of 2,4-D) foliar
[13] = 1120 g ae/ha (molar equivalent of 2,4-D) foliar
[14] = 2240 g ae/ha (molar equivalent of 2,4-D) foliar
[15] = 26.25 g ae/ha glyphosate postemergence
[16] = 105 g ae/ha glyphosate postemergence
[17] = 420 g ae/ha glyphosate postemergence
[18] = 1680 g ae/ha glyphosate postemergence

T1 sequence (P83309 whole entry, looked up, natural form): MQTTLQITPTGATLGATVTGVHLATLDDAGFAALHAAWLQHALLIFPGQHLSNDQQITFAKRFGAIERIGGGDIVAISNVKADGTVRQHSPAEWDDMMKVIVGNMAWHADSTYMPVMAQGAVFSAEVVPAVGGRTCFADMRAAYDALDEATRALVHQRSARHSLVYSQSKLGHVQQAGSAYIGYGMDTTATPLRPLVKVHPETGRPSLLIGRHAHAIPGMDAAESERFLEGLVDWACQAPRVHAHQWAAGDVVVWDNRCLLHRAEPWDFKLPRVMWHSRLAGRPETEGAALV

Oc1ccc(Cl)cc1Cl [2,4-DCP, 2,4-dichlorophenol]
Ave % Injury 14DAT [1, 11]: 0%
Ave % Injury 14DAT [1, 12]: 0%
Ave % Injury 14DAT [1, 13]: 0%
Ave % Injury 14DAT [1, 14]: 0%
Ave % Injury 14DAT [2, 11]: 0%
Ave % Injury 14DAT [2, 12]: 0%
Ave % Injury 14DAT [2, 13]: 0%
Ave % Injury 14DAT [2, 14]: 0%
effect on plants after foliar application ([2]; molar equivalent to 280-2240 g ae/ha of 2,4-D): no effect

O=C(O)COc1nc(F)c(Cl)cc1Cl [compound 93833]
Rate relative to triclopyr (AAD-12 (v2) [3]): 0.5
Rate (mAU/min) (AAD-12 (v2) [3]): 118 mAU/min

CC(Oc1ncc(Cl)cc1Cl)C(=O)O (centres unmarked) [compound 66357]
Rate relative to triclopyr (AAD-12 (v2) [3]): 2.3
Rate (mAU/min) (AAD-12 (v2) [3]): 225 mAU/min

C[C@H](Oc1ccc(Cl)cc1Cl)C(=O)O [(S)-dichlorprop]
activity of AAD-12 (v2) on substrate (absorbance at 510 nm, FIG. 3) (AAD-12 (v2) [4]): excellent activity

Nc1c(Cl)c(F)nc(OCC(=O)O)c1Cl [fluroxypy]
Average % injury 14 DAT [5]: 3%
Average % injury 14 DAT [6]: 75%
Average % injury 14 DAT [7]: 3%
Average % injury 14 DAT (wildtype tobacco): 75%

O=C(O)CNCP(=O)(O)O [glyphosate]
% Injury 20-40% (number of individuals) [8, 15]: 2
% Injury <20% (number of individuals) [8, 15]: 13
% Injury >40% (number of individuals) [8, 15]: 1
% Injury Ave [8, 15]: 11%
% Injury 20-40% (number of individuals) [8, 16]: 1
% Injury <20% (number of individuals) [8, 16]: 10
% Injury >40% (number of individuals) [8, 16]: 5
% Injury Ave [8, 16]: 34%
% Injury 20-40% (number of individuals) [8, 17]: 6
% Injury <20% (number of individuals) [8, 17]: 5
% Injury >40% (number of individuals) [8, 17]: 5
% Injury Ave [8, 17]: 44%
% Injury 20-40% (number of individuals) [8, 18]: 0
% Injury <20% (number of individuals) [8, 18]: 0
% Injury >40% (number of individuals) [8, 18]: 16
% Injury Ave [8, 18]: 85%
% Injury 20-40% (number of individuals) (PAT/Cry1F Arabidopsis; [15]): 0
% Injury <20% (number of individuals) (PAT/Cry1F Arabidopsis; [15]): 0
% Injury >40% (number of individuals) (PAT/Cry1F Arabidopsis; [15]): 5
% Injury Ave (PAT/Cry1F Arabidopsis; [15]): 67%
% Injury 20-40% (number of individuals) (PAT/Cry1F Arabidopsis; [16]): 0
% Injury <20% (number of individuals) (PAT/Cry1F Arabidopsis; [16]): 0
% Injury >40% (number of individuals) (PAT/Cry1F Arabidopsis; [16]): 5
% Injury Ave (PAT/Cry1F Arabidopsis; [16]): 100%
% Injury 20-40% (number of individuals) (PAT/Cry1F Arabidopsis; [17]): 0
% Injury <20% (number of individuals) (PAT/Cry1F Arabidopsis; [17]): 0
% Injury >40% (number of individuals) (PAT/Cry1F Arabidopsis; [17]): 5
% Injury Ave (PAT/Cry1F Arabidopsis; [17]): 100%
% Injury 20-40% (number of individuals) (PAT/Cry1F Arabidopsis; [18]): 0
% Injury <20% (number of individuals) (PAT/Cry1F Arabidopsis; [18]): 0
% Injury >40% (number of individuals) (PAT/Cry1F Arabidopsis; [18]): 5
% Injury Ave (PAT/Cry1F Arabidopsis; [18]): 100%
% Injury 20-40% (number of individuals) [9, 15]: 0
% Injury <20% (number of individuals) [9, 15]: 0
% Injury >40% (number of individuals) [9, 15]: 5
% Injury Ave [9, 15]: 75%
% Injury 20-40% (number of individuals) [9, 16]: 0
% Injury <20% (number of individuals) [9, 16]: 0
% Injury >40% (number of individuals) [9, 16]: 5
% Injury Ave [9, 16]: 100%
% Injury 20-40% (number of individuals) [9, 17]: 0
% Injury <20% (number of individuals) [9, 17]: 0
% Injury >40% (number of individuals) [9, 17]: 5
% Injury Ave [9, 17]: 100%
% Injury 20-40% (number of individuals) [9, 18]: 0
% Injury <20% (number of individuals) [9, 18]: 0
% Injury >40% (number of individuals) [9, 18]: 5
% Injury Ave [9, 18]: 100%
% Injury 20-40% (number of individuals) [10, 15]: 0
% Injury <20% (number of individuals) [10, 15]: 0
% Injury >40% (number of individuals) [10, 15]: 5
% Injury Ave [10, 15]: 66%
% Injury 20-40% (number of individuals) [10, 16]: 0
% Injury <20% (number of individuals) [10, 16]: 0
% Injury >40% (number of individuals) [10, 16]: 5
% Injury Ave [10, 16]: 100%
% Injury 20-40% (number of individuals) [10, 17]: 0
% Injury <20% (number of individuals) [10, 17]: 0
% Injury >40% (number of individuals) [10, 17]: 5
% Injury Ave [10, 17]: 100%
% Injury 20-40% (number of individuals) [10, 18]: 0
% Injury <20% (number of individuals) [10, 18]: 0
% Injury >40% (number of individuals) [10, 18]: 5
% Injury Ave [10, 18]: 100%

CC(Oc1nc(F)c(Cl)cc1Cl)C(=O)O (centres unmarked) [compound 91767]
Rate relative to triclopyr (AAD-12 (v2) [3]): 0.8
Rate (mAU/min) (AAD-12 (v2) [3]): 190 mAU/min

CC(Oc1nc(Cl)c(Cl)cc1Cl)C(=O)O (centres unmarked) [compound 116844]
Rate relative to triclopyr (AAD-12 (v2) [3]): 1.4
Rate (mAU/min) (AAD-12 (v2) [3]): 257 mAU/min
